Experimental data: patent US20070185153A1 (priority 2005, published 2007)
Where a name gives a salt, the structure may show the parent alone. Read-outs that look alike come from different tables or passages of the source.

System: panel of Gram-positive organisms and panel of Gram-negative organisms
Experiment: organism not typed
Assay type: cell-based
[1] = read-out: MIC (minimum inhibitory concentration)

Compound `O=c1[nH]c2ccccc2nc1CNC1CCN(C[C@]2(O)Cn3c(=O)ccc4ncc(F)c2c43)CC1` [Example 38] has an MIC [1] of at most 4 µg/mL.
`O=c1[nH]c(CNC2CCN(C[C@]3(O)Cn4c(=O)ccc5ncc(F)c3c54)CC2)nc2ccccc12` [Example 39] was tested, and the MIC [1] was at most 4 µg/mL.
In the case of `COc1cnc2ccc(=O)n3c2c1[C@](O)(CN1CCC(NCc2cc4c(nn2)OCCO4)CC1)C3` [Example 66], the MIC (read-out: MIC values) is reported as at least 16 µg/mL.
With `CC(C)n1nnc2cc(CNC3CCN(C[C@]4(O)Cn5c(=O)ccc6ncc(F)c4c65)CC3)ccc21` [Example 47] the MIC [1] was at most 8 µg/mL.
Work on `COc1cnc2ccc(=O)n3c2c1[C@](O)(CN1CCC(NCc2cc4c(cn2)OCCO4)CC1)C3` [Example 65] yielded an MIC [1] of at most 8 µg/mL.
`O=c1c(Cl)cc2ncc(F)c3c2n1CC3(O)CN1CCC(NCc2cc3c(cn2)OCCO3)CC1` (racemic) [Example 24, (4R/S)-8-Chloro-4-({4-[(2,3-dihydro[1,4]dioxino[2,3-c]pyridin-7-ylmethyl)amino]-1-piperidinyl}methyl)-3-fluoro-4-hydroxy-4,5-dihydro-7H-pyrrolo[3,2,1-de]-1,5-naphthyridin-7-one dihydrochloride] showed an MIC [1] of at most 4 µg/mL.
